Measured values: article PMC7301889 (Journal of computer-aided molecular design, 2019)

assay: Potentiometric; assay type: physicochemical; settings: 1-octanol/water biphasic system, log P (mean ± SEM), octanol / ISA water, neutral species, 25.0 ± 0.5 °C, 150 mM KCl, mean ± SEM of at least three independent replicates

logP | SMILES
4.09 ± 0.03 | FC(F)(F)c1cccc(Nc2ncnc3ccccc23)c1 [SM02, c1ccc2c(c1)c(ncn2)Nc3cccc(c3)C(F)(F)F]
3.98 ± 0.03 | Clc1ccc(CNc2ncnc3ccccc23)cc1 [SM04, c1ccc2c(c1)c(ncn2)NCc3ccc(cc3)Cl]
3.03 ± 0.07 | COc1cccc(Nc2ncnc3ccccc23)c1 [SM09, COc1cccc(c1)Nc2c3ccccc3ncn2.Cl]
3.83 ± 0.03 | Clc1cccc(Nc2ncnc3ccccc23)c1 [SM12, c1ccc2c(c1)c(ncn2)Nc3cccc(c3)Cl.Cl]

The next lines start with the compound.

SMILES | logP
Cc1ccc2[nH]c(=O)c(CC(=O)O)c(-c3ccccc3)c2c1 [SM08, Cc1ccc2c(c1)c(c(c(=O)[nH]2)CC(=O)O)c3ccccc3] | 3.1 ± 0.03
Nc1ncnc2c1cnn2-c1ccccc1 [SM11, c1ccc(cc1)n2c3c(cn2)c(ncn3)N] | 2.1 ± 0.04
COc1cc2ncnc(Nc3cccc(C)c3)c2cc1OC [SM13, Cc1cccc(c1)Nc2c3cc(c(cc3ncn2)OC)OC] | 2.92 ± 0.04
Nc1ccc2c(c1)ncn2-c1ccccc1 [SM14, c1ccc(cc1)n2cnc3c2ccc(c3)N] | 1.95 ± 0.03
Oc1ccc(-n2cnc3ccccc32)cc1 [SM15, c1ccc2c(c1)ncn2c3ccc(cc3)O] | 3.07 ± 0.03
O=C(Nc1ccncc1)c1c(Cl)cccc1Cl [SM16, c1cc(c(c(c1)Cl)C(=O)Nc2ccncc2)Cl] | 2.62 ± 0.01
